Assay results taken from the kinase profiling compilation of Christmann-Franck et al. (2016).

Experiments:
Experiment in all cases: radiometric filter-binding kinase assay, Kinase HotSpot
Conditions in all cases: compound 0.5 µM; ATP 10 µM
[1] = biological target: CDK1 CCNB1 (human) (UniProt P06493+P14635)
[2] = biological target: ROCK1 (human) (UniProt Q13464)
[3] = biological target: PIM3 (human) (UniProt Q86V86)
[4] = biological target: EPHA2 (human) (UniProt P29317)
[5] = biological target: MYLK (human) (UniProt Q15746)
[6] = biological target: SGK3 (human) (UniProt Q96BR1)
[7] = biological target: STK17A (human) (UniProt Q9UEE5)
[8] = biological target: SRPK2 (human) (UniProt P78362)
[9] = biological target: TAOK3 (human) (UniProt Q9H2K8)
[10] = biological target: CAMK2A (human) (UniProt Q9UQM7)
[11] = biological target: EPHA8 (human) (UniProt P29322)
[12] = biological target: CSNK2A1 (human) (UniProt P68400)
[13] = biological target: ADRBK2 (human) (UniProt P35626)
[14] = biological target: NLK (human) (UniProt Q9UBE8)
[15] = biological target: PRKCG (human) (UniProt P05129)
[16] = biological target: NEK2 (human) (UniProt P51955)
Chain of NEK2 (human) (P51955 whole entry, looked up): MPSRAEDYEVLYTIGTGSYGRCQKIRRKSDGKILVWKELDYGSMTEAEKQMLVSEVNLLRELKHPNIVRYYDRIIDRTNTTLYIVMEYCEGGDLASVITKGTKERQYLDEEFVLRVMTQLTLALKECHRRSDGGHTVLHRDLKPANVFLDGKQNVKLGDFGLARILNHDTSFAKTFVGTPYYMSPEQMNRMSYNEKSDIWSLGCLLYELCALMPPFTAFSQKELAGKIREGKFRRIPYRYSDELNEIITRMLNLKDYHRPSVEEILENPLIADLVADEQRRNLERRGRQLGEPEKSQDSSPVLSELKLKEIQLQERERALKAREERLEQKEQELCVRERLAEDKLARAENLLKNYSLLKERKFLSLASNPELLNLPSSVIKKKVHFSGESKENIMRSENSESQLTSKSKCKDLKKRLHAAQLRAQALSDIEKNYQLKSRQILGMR

[17] = biological target: RET (human) (UniProt P07949)
[18] = biological target: MERTK (human) (UniProt Q12866)
[19] = biological target: HIPK1 (human) (UniProt Q86Z02)
[20] = biological target: PAK2 (human) (UniProt Q13177)
Chain of PAK2 (human) (Q13177 whole entry, looked up): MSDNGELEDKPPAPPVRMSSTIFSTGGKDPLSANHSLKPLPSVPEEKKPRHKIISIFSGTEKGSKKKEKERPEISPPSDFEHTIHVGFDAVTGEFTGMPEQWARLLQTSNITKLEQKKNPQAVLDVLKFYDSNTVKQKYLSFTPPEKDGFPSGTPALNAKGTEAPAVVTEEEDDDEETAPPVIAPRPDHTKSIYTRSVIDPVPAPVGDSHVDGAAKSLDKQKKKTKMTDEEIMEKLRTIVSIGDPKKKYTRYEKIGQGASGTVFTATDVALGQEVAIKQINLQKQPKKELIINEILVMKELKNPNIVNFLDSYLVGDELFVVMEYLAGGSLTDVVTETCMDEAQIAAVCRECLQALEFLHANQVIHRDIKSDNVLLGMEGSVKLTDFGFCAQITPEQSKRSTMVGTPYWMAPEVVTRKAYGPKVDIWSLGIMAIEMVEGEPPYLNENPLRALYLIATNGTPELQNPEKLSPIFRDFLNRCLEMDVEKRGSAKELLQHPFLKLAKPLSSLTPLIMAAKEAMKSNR

[21] = biological target: NUAK2 (human) (UniProt Q9H093)
Chain of NUAK2 (human) (Q9H093 whole entry, looked up): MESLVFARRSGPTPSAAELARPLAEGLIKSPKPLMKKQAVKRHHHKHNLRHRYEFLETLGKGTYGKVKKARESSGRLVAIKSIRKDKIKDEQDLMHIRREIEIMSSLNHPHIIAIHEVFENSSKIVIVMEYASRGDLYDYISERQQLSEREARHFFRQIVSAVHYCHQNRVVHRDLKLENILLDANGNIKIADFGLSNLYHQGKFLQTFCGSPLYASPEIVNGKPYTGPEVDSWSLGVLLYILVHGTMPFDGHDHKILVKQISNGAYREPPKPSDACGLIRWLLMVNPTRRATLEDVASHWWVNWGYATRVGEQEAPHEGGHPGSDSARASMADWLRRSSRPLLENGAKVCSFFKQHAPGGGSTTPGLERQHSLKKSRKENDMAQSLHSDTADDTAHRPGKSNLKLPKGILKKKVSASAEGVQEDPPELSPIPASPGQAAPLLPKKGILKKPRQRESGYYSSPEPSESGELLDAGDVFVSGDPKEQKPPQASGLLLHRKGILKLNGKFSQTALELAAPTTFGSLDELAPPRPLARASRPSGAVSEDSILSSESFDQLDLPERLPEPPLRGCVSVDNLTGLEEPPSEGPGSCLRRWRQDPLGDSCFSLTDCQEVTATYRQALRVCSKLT

[22] = biological target: MAPK1 (human) (UniProt P28482)
[23] = biological target: GRK4 (human) (UniProt P32298)
[24] = biological target: DYRK3 (human) (UniProt O43781)
[25] = biological target: CAMKK1 (human) (UniProt Q8N5S9)
[26] = biological target: MARK2 (human) (UniProt Q7KZI7)
[27] = biological target: PTK6 (human) (UniProt Q13882)
[28] = biological target: EPHA3 (human) (UniProt P29320)
[29] = biological target: FGFR2 (human) (UniProt P21802)
[30] = biological target: INSR (human) (UniProt P06213)
[31] = biological target: MYLK2 (human) (UniProt Q9H1R3)
[32] = biological target: RPS6KA1 KD1 KD2 (human) (UniProt Q15418)
[33] = biological target: MKNK2 (human) (UniProt Q9HBH9)
[34] = biological target: PAK4 (human) (UniProt O96013)
[35] = biological target: PAK1 (human) (UniProt Q13153)
Chain of PAK1 (human) (Q13153 whole entry, looked up): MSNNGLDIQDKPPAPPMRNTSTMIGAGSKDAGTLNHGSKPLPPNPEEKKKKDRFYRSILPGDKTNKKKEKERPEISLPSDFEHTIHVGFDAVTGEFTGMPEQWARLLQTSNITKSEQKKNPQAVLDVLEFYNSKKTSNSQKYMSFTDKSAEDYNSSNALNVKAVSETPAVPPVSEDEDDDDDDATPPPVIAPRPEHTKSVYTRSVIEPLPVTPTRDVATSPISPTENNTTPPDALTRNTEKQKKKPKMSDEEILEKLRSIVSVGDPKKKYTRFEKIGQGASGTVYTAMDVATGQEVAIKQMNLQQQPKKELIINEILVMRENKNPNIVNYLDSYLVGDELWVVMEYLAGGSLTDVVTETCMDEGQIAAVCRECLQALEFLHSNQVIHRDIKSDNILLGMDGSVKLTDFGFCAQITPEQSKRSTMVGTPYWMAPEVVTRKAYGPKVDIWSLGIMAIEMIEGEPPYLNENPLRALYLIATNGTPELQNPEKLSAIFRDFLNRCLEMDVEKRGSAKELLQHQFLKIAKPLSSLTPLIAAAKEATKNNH

[36] = biological target: TTK (human) (UniProt P33981)
[37] = biological target: INSRR (human) (UniProt P14616)
[38] = biological target: MAPKAPK2 (human) (UniProt P49137)
[39] = biological target: RAF1 (human) (UniProt P04049)
[40] = biological target: NEK9 (human) (UniProt Q8TD19)
[41] = biological target: ULK2 (human) (UniProt Q8IYT8)
Chain of ULK2 (human) (Q8IYT8 whole entry, looked up): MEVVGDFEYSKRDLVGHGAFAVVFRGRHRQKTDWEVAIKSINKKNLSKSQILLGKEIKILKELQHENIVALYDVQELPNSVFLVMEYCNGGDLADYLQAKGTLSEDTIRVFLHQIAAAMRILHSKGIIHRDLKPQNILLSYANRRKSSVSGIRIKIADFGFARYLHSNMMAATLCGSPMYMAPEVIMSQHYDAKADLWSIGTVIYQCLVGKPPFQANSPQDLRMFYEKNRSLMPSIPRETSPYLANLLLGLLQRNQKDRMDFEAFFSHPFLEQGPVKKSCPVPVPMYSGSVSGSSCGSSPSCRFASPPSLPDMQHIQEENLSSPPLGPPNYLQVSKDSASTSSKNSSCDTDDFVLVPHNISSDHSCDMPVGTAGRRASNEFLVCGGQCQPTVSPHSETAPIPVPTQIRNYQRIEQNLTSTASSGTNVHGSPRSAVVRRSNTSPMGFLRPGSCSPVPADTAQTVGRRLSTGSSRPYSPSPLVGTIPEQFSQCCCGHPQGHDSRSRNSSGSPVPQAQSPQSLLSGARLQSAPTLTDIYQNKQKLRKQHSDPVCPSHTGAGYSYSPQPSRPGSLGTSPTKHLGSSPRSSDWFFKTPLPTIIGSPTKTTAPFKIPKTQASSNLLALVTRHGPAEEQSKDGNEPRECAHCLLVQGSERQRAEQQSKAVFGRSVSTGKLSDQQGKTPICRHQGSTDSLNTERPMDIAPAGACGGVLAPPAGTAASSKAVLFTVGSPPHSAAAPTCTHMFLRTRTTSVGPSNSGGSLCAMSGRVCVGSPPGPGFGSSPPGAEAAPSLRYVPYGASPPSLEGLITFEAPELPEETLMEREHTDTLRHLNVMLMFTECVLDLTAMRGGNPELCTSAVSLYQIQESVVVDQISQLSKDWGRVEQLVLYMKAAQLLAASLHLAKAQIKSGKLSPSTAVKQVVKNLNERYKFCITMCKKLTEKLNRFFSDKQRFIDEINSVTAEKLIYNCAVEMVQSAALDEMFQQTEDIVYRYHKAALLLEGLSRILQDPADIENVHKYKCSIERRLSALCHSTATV

[42] = biological target: CAMK4 (human) (UniProt Q16566)

Chain of EPHA2 (human) (P29317 whole entry, looked up): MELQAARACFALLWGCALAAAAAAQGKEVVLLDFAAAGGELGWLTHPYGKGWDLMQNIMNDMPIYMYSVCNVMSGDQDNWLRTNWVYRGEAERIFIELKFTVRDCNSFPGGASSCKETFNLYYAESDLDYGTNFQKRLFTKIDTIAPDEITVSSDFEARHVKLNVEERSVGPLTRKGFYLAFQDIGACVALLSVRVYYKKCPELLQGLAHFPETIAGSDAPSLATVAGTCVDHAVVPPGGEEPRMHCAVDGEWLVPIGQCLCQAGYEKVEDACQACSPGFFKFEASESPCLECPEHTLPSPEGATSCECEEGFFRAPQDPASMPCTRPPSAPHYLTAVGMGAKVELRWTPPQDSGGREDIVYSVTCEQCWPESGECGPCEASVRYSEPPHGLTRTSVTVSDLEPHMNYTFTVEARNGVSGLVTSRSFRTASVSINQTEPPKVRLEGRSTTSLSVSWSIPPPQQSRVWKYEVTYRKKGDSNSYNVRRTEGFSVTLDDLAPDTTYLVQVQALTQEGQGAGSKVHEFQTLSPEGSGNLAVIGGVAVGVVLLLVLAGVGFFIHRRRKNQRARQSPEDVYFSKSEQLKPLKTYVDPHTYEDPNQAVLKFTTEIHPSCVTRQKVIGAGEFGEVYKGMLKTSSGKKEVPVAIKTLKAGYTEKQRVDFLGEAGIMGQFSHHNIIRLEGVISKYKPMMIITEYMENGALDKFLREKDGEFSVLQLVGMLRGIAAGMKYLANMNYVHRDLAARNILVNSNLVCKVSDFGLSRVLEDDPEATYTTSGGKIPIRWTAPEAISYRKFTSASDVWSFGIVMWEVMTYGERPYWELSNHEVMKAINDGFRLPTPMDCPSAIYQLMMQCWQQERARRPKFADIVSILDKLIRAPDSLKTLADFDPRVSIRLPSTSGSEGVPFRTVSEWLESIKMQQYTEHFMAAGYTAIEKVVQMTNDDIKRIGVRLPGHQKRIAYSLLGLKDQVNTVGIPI

**Q.** With `Cc1nc2cc3nc(-c4cccs4)cnc3cc2n1C` as the compound, how does the residual activity [1] read?
**A.** Its residual activity is 96.7%.

**Q.** And the residual activity [2]?
**A.** Its residual activity is 97.8%.

**Q.** And the residual activity [3]?
**A.** The residual activity was 91.2%.

**Q.** What about the residual activity [4] of the same compound?
**A.** Its residual activity is 107%.

**Q.** And the residual activity [5]?
**A.** The residual activity was 97%.

**Q.** What about the residual activity [6] of the same compound?
**A.** The residual activity was 105%.

**Q.** What about the residual activity [7] of the same compound?
**A.** The residual activity was 80.5%.

**Q.** And the residual activity [8]?
**A.** The residual activity was 104%.

**Q.** And the residual activity [9]?
**A.** Its residual activity is 116%.

**Q.** What about the residual activity [10] of the same compound?
**A.** Its residual activity is 105%.

**Q.** What about the residual activity [11] of the same compound?
**A.** The residual activity was 100%.

**Q.** And the residual activity [12]?
**A.** Its residual activity is 101%.

**Q.** And the residual activity [13]?
**A.** The residual activity was 99.2%.

**Q.** And the residual activity [14]?
**A.** Its residual activity is 105%.

**Q.** And the residual activity [15]?
**A.** Its residual activity is 94.9%.

**Q.** And the residual activity [16]?
**A.** The residual activity was 97%.

**Q.** What about the residual activity [17] of the same compound?
**A.** Its residual activity is 68.9%.

**Q.** What about the residual activity [18] of the same compound?
**A.** Its residual activity is 90.4%.

**Q.** And the residual activity [19]?
**A.** Its residual activity is 103%.

**Q.** What about the residual activity [20] of the same compound?
**A.** The residual activity was 102%.

**Q.** And the residual activity [21]?
**A.** Its residual activity is 96.7%.

**Q.** And the residual activity [22]?
**A.** Its residual activity is 110%.

**Q.** What about the residual activity [23] of the same compound?
**A.** The residual activity was 104%.

**Q.** And the residual activity [24]?
**A.** Its residual activity is 111%.

**Q.** And the residual activity [25]?
**A.** The residual activity was 127%.

**Q.** And the residual activity [26]?
**A.** Its residual activity is 81.4%.

**Q.** And the residual activity [27]?
**A.** Its residual activity is 88.6%.

**Q.** What about the residual activity [28] of the same compound?
**A.** Its residual activity is 102%.

**Q.** What about the residual activity [29] of the same compound?
**A.** The residual activity was 91.8%.

**Q.** And the residual activity [30]?
**A.** Its residual activity is 99.9%.

**Q.** What about the residual activity [31] of the same compound?
**A.** The residual activity was 74.5%.

**Q.** What about the residual activity [32] of the same compound?
**A.** The residual activity was 99.4%.

**Q.** And the residual activity [33]?
**A.** Its residual activity is 108%.

**Q.** And the residual activity [34]?
**A.** The residual activity was 126%.

**Q.** And the residual activity [35]?
**A.** The residual activity was 86.6%.

**Q.** What about the residual activity [36] of the same compound?
**A.** Its residual activity is 92.6%.

**Q.** What about the residual activity [37] of the same compound?
**A.** The residual activity was 99.5%.

**Q.** And the residual activity [38]?
**A.** The residual activity was 95.4%.

**Q.** What about the residual activity [39] of the same compound?
**A.** The residual activity was 104%.

**Q.** And the residual activity [40]?
**A.** Its residual activity is 105%.

**Q.** And the residual activity [41]?
**A.** The residual activity was 105%.

**Q.** What about the residual activity [42] of the same compound?
**A.** Its residual activity is 94.7%.
